B1: IspSm2: mutant IspSm1 containing L35R (SEQ ID NO: 8), screened from random mutant library (protein)
chain: MACSVSTENVSFTETETETRRSANYEPNSWDYDYRLSSDTDESIEVYKDKAKKLEAEVRREINNEKAEFLTLLELIDNVQRLGLGYRFESDIRRALDRFVSSGGFDAVTKTSLHATALSFRLLRQHGFEVSQEAFSGFKDQNGNFLENLKEDIKAILSLYEASFLALEGENILDEAKVFAISHLKELSEEKIGKDLAEQVNHALELPLHRRTQRLEAVLSIEAYRKKEDADQVLLELAILDYNMIQSVYQRDLRETSRWWRRVGLATKLHFARDRLIESFYWAVGVAFEPQYSDCRNSVAKMFSFVTIIDDIYDVYGTLDELELFTNAVERWDVNAIDDLPDYMKLCFLALYNTINEIAYDNLKEKGENILPYLTKAWADLCNAFLQEAKWLYNKSTPTFDDYFGNAWKSSSGPLQLVFAYFAVVQNIKKEEIENLQKYHDIISRPSHIFRLCNDLASASAEIARGETANSVSCYMRTKGISEELATESVMNLIDETWKKMNKEKLGGSLFAKPFVETAINLARQSHCTYHNGDAHTSPDELTRKRVLSVITEPILPFER
modifications: IspSm2

Columns and labels:
[1] = test system: IspGESS artificial genetic circuit (TbuT regulator); assay: Quantitative fluorescence response of pIspGESS-containing recombinant E. coli to added compounds (FACS); type: cell-based, E. coli DH5α; settings: for response of IspGESS fluorescence to the compound: 0-2000 μM, FACS; for concentration from which fluorescence started to be sensed: pIspGESS in E. coli DH5α, M9 medium, 30° C. 18 hours, FACS FL1-H
Experimental: In order to examine the isoprene, toluene, benzene and phenol compounds sensing function of pIspGESS-containing recombinant E. coli, pIspGESS of Example 1 was introduced into a single colony of E. coli DH5α (NEB, USA) by heat shock, and then the E. coli colony was inoculated into an LB liquid medium (1% (w/v) trypton, 0.5% (w/v) yeast extract, and 1% (w/v) sodium chloride) supplemented with 50 μg/Ml of ampicillin and was cultured with shaking at 37° C. for 14 hours. The culture was inoculated into M9 minimal medium (containing 50 μg/Ml ampicillin, 4% glucose and 1% thiamine) at a concentration of 1% and then cultured with shaking at 37° C. for 6 hours. Various concentrations (0-2000 μM) of isoprene was added to each of the test tubes containing the culture broth, after then the culture was cultured with shaking at 30° C. for 18 hours, thereby inducing the expression of fluorescence in the culture. The intensity of intracellular fluorescence induced by each concentration of toluene was analyzed by a FACS Calibur system (Becton Dickinson, USA). As a detector, a FSC, SSC, FL1-H (excitation=488 nm, emission=530/30 nm) detector was set, and data obtained by observing 10,000 samples were analyzed using CellQuest Pro (Becton Dickinson, USA).

[2] = test system: IspGESS artificial genetic circuit; assay: Detection of isoprene synthase activity with IspGESS, pCDF vector (FACS); type: cell-based; settings: E. coli BL21(DE3), FACS 10,000 cells
Experimental: First, the IspSm1 gene was inserted into the NcoI-AvrII restriction enzyme site of a pCDF-duet vector (Novagen, USA) to prepare pCDF-IspSm1, which was then introduced into an E. coli BL21 (DE3) strain (NEB, USA) containing pIspGESS of […] of ampicillin and 10 μg/Ml of streptomycin were added to LB liquid medium containing 0.1 mM of IPTG (isopropyl-thio-β-Dgalactopyranoside), and E. coli cells were cultured with shaking in the LB liquid medium at 37° C. for 16 hours. Then, the cultured cells were transferred into M9 liquid medium containing 0.1 mM IPTG and were cultured at 28° C. and 200 rpm for 20 hours. […] The intensity of fluorescence in the cultured cells was analyzed using a FACS Calibur system (Becton Dickinson, USA). As a detector, a FSC, SSC, FL1-H (excitation=488 nm, emission=530/30 nm) detector was set, and data obtained by observing 10,000 samples were analyzed.
As a result, 5×10^5 of mutant library was constructed. […] With the criterion for screening, cells showing fluorescence intensity which is at least 50% higher than that of IspSm1 were sorted using a FACScalibur system (Becton Dickinson, USA). Then, 6 clones having higher fluorescence intensity than IspSm1 were isolated.
The activities of the isolated clones were analyzed by a FACS. As detectors, FSC, SSC, FL1-H (excitation=488 nm, emission=530/30 nm) detectors were set, and 10,000 cells were analyzed.

[3] = test system: IspGESS artificial genetic circuit; assay: Detection of isoprene synthase activity with IspGESS, pPROLar vector (FACS, t-test); type: cell-based; settings: E. coli DH5α
Experimental: First, IspSm1 and IspSm2 genes were amplified using PCR with primers (SEQ ID NOS: 13, 14), and inserted into the NdeI-XbaI restriction enzyme site of a pPROLar vector for pPROLar-ispSm1 and pPROLar-ispSm2 (SEQ ID NOS: 15, 16). Then these two vectors were transformed into an E. coli DH5α strain containing IspGESS of Example 1. 50 μg/Ml of ampicillin and 10 μg/Ml of kanamycin were added to LB liquid medium, and E. coli cells were cultured with shaking in the LB liquid medium at 37° C. for 16 hours. 4 Ml of the culture medium was placed in a 10 Ml vial and the cultured bacterial strain was then inoculated at a concentration of 1%. Then, the vial was sealed with a septum and the cells were cultured at 28° C. and 200 rpm for 24 hours. The intensity of fluorescence in the cultured cells was analyzed using a FACScalibur system (Becton Dickinson, USA). As detectors, FSC, SSC, and FL1-H (excitation=488 nm, emission=530/30 nm) detectors were set, and 10,000 samples were analyzed.
To verify the fluorescence differences of IspSm1, IspSm2 and no IspS induction control, the flow cytometry data was analyzed by t-test. The t-test compared the mean values of the fluorescence signals between the negative control (IspGESS without IspSm1 (IspSm2) induction) and the case that includes IspSm1 (IspSm2) inducer. […] Note that there are three replicates of each case (FIG. 8).

| Molecule | response of IspGESS fluorescence to the compound [1] | concentration from which fluorescence started to be sensed [1] | fluorescence intensity / isoprene synthesis activity compared with IspSm1 [2] | fluorescent mean intensity compared with IspGESS with IspSm1 [3] | intensity of fluorescence compared with cells containing neither IspSm1 nor IspSm2 [3] |
| --- | --- | --- | --- | --- | --- |
| Oc1ccccc1 [phenol] | responded | 50 µM | – | – | – |
| C=CC(=C)C [isoprene] | increased as the isoprene concentration increased | 50 µM | – | – | – |
| c1ccccc1 [benzene] | responded | 1 µM | – | – | – |
| Cc1ccccc1 [toluene] | responded | 0.5 µM | – | – | – |
| B1 | – | – | two times higher | higher | higher |
